In publication PMC8037310, “Thrombin-Derived Peptides Potentiate the Activity of Gram-Positive-Specific Antibiotics against Gram-Negative Bacteria” (Molecules, 2021):
Values joined by “and” are separate entries in the source; they are usually repeats but may differ in a detail not shown here. Equal values may be shown once. Read-outs that look alike come from different tables or passages of the source. Square brackets hold non-standard residues; d marks the D form. Peptide text beside a SMILES is read from it.

Key:
E. coli BW25113 [1] = experiment: Checkerboard assay with erythromycin; format: cell-based, Escherichia coli; details: for MSCery: erythromycin concentration in the combination with the synergist giving the lowest FICi, E. coli BW25113; for MIC of the peptide (MICpep): synergist alone, from checkerboard with erythromycin; for MIC of the peptide (MICpep) / MSCpeptide, minimum synergistic concentration: E. coli BW25113, LB, 20 h 37 °C; for MSCpeptide, minimum synergistic concentration: synergist concentration in the combination with erythromycin giving the lowest FICi, OD600; for FICi: with erythromycin vs E. coli BW25113, synergy defined as FICi ≤ 0.5
Protocol: (§1) All peptides were screened for antimicrobial activity against E. coli BW25113, E. coli ATCC25922, and E. coli W3110. A select group of the peptides was further tested against E. coli mcr-1, E. coli EQASmcr-1 (EQAS 2016 412016126), E. coli EQASmcr-2 (EQAS 2016 KP37), E. coli EQASmcr-3 (EQAS 2017 2013-SQ352), K. pneumoniae ATCC13883, P. aeruginosa ATCC27853, and A. baumannii ATCC17978. The antimicrobial assay was performed according to CLSI guidelines. Bacteria were plated out directly from their glycerol stocks on blood agar plates, incubated overnight at 37 °C, and then kept in the fridge. The blood agar plates were only used for 2 weeks and then replaced.
(§2) One colony from a blood agar plates was inoculated in Lysogeny Broth (LB) at 37 °C until a 0.5 optical density at 600 nm (OD600) was reached (compared to the sterility control of LB). The bacterial suspension was diluted in fresh LB to 2.0 × 10^6 CFU/mL. The serial dilutions were prepared in polypropylene microtiter plates: a stock of the test compounds was prepared with a 2x final concentration in LB. Moreover, 100 µL of the stock was added to the wells of the top row of which 50 µL was used for the serial dilution. The bottom row of each plate was used as the positive (50 µL of LB) and negative controls (100 µL of LB) (6 wells each). Furthermore, 50 µL of the 2.0 × 10^6 CFU/mL bacterial stock was added to each well except for the negative controls, adding up to a total volume of 100 µL per well. The plates were sealed with a breathable seal and incubated for 20 h at 37 °C and 600 rpm.
(§3) Two 96-well plates were required per compound. A serial dilution of the compound was performed on two plates from row A–G using with LB as medium. Row H was filled with 25 µL medium. On a separate plate a negative control (8 wells, 100 μL medium) was prepared. For all concentrations of antibiotic a specific stock was prepared. 25 µL medium was added to the 0 µg/mL antibiotic columns (plate I, column 1–3). Of each antibiotic stock 25 µL was added to three columns to obtain triplicates for every condition. Both plates contained 50 µL in each well to which 50 µL bacterial stock was added (see the protocol of the MIC assays) and the plates were sealed. After incubation for 20 h at 37 °C while shaking, the breathable seals were removed and the density of the bacterial suspensions measured at 600 nm (OD600) using a Tecan Spark plate reader. The OD600 values were transformed to a 2D gradient with the negative control as minimum and the positive control (wells G1, G2, and G3) as maximum in excel. The FICi was calculated using Equation (1) with a FICi ≤ 0.5 indicating synergy. FICi = (MSCa/MICa) + (MSCb/MICb),(1)
(§4) Calculation of the FICi: MSCa = concentration of the […] in combination with the antibiotic that results in the lowest FICi. MICa = MIC of the antibiotic without synergist (row G). MSCb = concentration of the synergist in combination with the antibiotic that results in the lowest FICi. MICb = MIC of the synergist itself (Column 1–3, plate I).

E. coli BW25113 [2] = format: cell-based, Escherichia coli; details: for FICi: BW25113, 20 h; for MICpep: synergist alone, E. coli BW25113, from checkerboard with rifampicin; for MSCpep: synergist concentration in the combination with rifampicin giving the lowest FICi; for MSCpep / MSCrif: E. coli BW25113; for MSCrif: rifampicin concentration in the combination giving the lowest FICi
Protocol: as §1, §2, §3, §4

[3] = tested on: defibrinated sheep blood (red blood cells); experiment: Hemolysis assay; format: cell-based; details: 200 µg/mL compound, 20 h incubation at 37 °C with defibrinated sheep blood, PBS 0.002% Tween20, absorbance 415 nm, relative to 0.1% Triton X-100; n=3 technical replicates
Protocol: Defibrinated sheep blood (Thermo Fisher Scientific) and a phosphate-buffered saline (PBS) buffer containing 0.002% Tween20 were used in this assay. The red blood cells were washed with buffer followed by centrifugation (400 g for 15 min at 4 °C). The red blood cells were then normalized to obtain a positive control read-out around 2.5 at 415 nm to stay in the linear range with the maximum sensitivity. A serial dilution of the compounds (200–1.56 µg/mL, 75 µL) was prepared in a 96-well plate. Each plate contained a positive control (0.1% Triton X-100 final concentration, 75 µL) and the negative control (buffer, 75 µL). After addition of normalized blood cells (75 µL), the plates were incubated for 20 h at 37 °C at 500 rpm. The plates were centrifuged (800× g for 5 min at room temperature). For the next step flat-bottom polystyrene plates were prepared with 100 µL buffer in each well. Aliquots of 25 µL supernatant from the centrifuged plates were then transferred to their respective wells in the flat-bottom plate. Absorbance values where measured at 415 nm and corrected for background (negative control) and transformed to a percentage hemolysis relative to the positive control.

SMILES	MIC of the peptide (MICpep) (E. coli BW25113 [1]) [µg/mL]	MICpep (E. coli BW25113 [2]) [µg/mL]	MSCery (E. coli BW25113 [1]) [µg/mL]	MSCpeptide, minimum synergistic concentration (E. coli BW25113 [1]) [µg/mL]	FICi (E. coli BW25113 [1])	FICi (E. coli BW25113 [2])	MSCpep (E. coli BW25113 [2]) [µg/mL]	Hemolysis [3]	MSCrif (E. coli BW25113 [2]) [µg/mL]
CC[C@H](C)[C@H](N)C(=O)N[C@H](C(=O)N[C@@H](CCCCN)C(=O)N[C@@H](CCC(N)=O)C(=O)N[C@H](C(=O)N[C@@H](Cc1c[nH]c2ccccc12)C(=O)N[C@@H](CCCCN)C(=O)N[C@@H](CCCCN)C(=O)N[C@@H](CC(C)C)C(=O)N[C@@H](CCCNC(=N)N)C(=O)N[C@@H](Cc1ccccc1)C(=O)N[C@H](C(N)=O)C(C)C)[C@@H](C)CC)C(C)C [peptide 21] (H-IVKQIWKKLRFV-NH2)	> 200	> 200	25	50	0.2500	0.3750	50	2.2% and 2%	2
CC[C@H](C)[C@H](NC(=O)[C@@H](NC(=O)[C@H](CCCCN)NC(=O)[C@H](CCC(N)=O)NC(=O)[C@@H](NC(=O)[C@H](Cc1c[nH]c2ccccc12)NC(=O)[C@H](C)NC(=O)[C@H](CCCCN)NC(=O)[C@H](CC(C)C)NC(=O)[C@H](CCCNC(=N)N)NC(=O)[C@H](Cc1ccccc1)NC(=O)[C@@H](N)C(C)C)[C@@H](C)CC)C(C)C)C(N)=O [compound 13] (H-VFRLKAWIQKVI-NH2)	25	25	3.125	12.5	> 0.5	0.5000	6.25	19.0%	2
CC[C@H](C)[C@H](NC(=O)[C@@H](NC(=O)[C@H](CCCCN)NC(=O)[C@H](CCC(N)=O)NC(=O)[C@@H](NC(=O)[C@H](Cc1c[nH]c2ccccc12)NC(=O)[C@H](CCCCN)NC(=O)[C@H](CCCCN)NC(=O)[C@H](CC(C)C)NC(=O)[C@H](CCCNC(=N)N)NC(=O)[C@H](Cc1ccccc1)NC(=O)[C@@H](NC(C)=O)C(C)C)[C@@H](C)CC)C(C)C)C(N)=O [peptide 7] (Ac-VFRLKKWIQKVI-NH2)	50	50	3.125	12.5	–	–	12.5	4.6% and 5%	–
CC[C@H](C)[C@H](NC(=O)[C@@H](NC(=O)[C@H](CCCCN)NC(=O)[C@H](CCC(N)=O)NC(=O)[C@@H](NC(=O)[C@H](Cc1c[nH]c2ccccc12)NC(=O)[C@H](CCCCN)NC(=O)[C@H](CCCCN)NC(=O)[C@H](CC(C)C)NC(=O)[C@H](CCCNC(=N)N)NC(=O)[C@H](C)NC(=O)[C@@H](N)C(C)C)[C@@H](C)CC)C(C)C)C(N)=O [peptide 9] (H-VARLKKWIQKVI-NH2)	50	200	12.5	3.125	0.1250	0.1406	25	0.1% and 0%	–
CC[C@H](C)[C@H](NC(=O)[C@@H](NC(=O)[C@H](C)NC(=O)[C@H](CCC(N)=O)NC(=O)[C@@H](NC(=O)[C@H](Cc1c[nH]c2ccccc12)NC(=O)[C@H](CCCCN)NC(=O)[C@H](CCCCN)NC(=O)[C@H](CC(C)C)NC(=O)[C@H](CCCNC(=N)N)NC(=O)[C@H](Cc1ccccc1)NC(=O)[C@@H](N)C(C)C)[C@@H](C)CC)C(C)C)C(N)=O [compound 17] (H-VFRLKKWIQAVI-NH2)	12.5	25	6.25	6.25	> 0.5	0.2656	6.25	20.7% and 21%	–

More lines, main results first:

MIC of the peptide (MICpep) (E. coli BW25113 [1]) [µg/mL]	MICpep (E. coli BW25113 [2]) [µg/mL]	SMILES	MSCery (E. coli BW25113 [1]) [µg/mL]	MSCpeptide, minimum synergistic concentration (E. coli BW25113 [1]) [µg/mL]	FICi (E. coli BW25113 [1])	FICi (E. coli BW25113 [2])	MSCpep (E. coli BW25113 [2]) [µg/mL]	Hemolysis [3]	MSCrif (E. coli BW25113 [2]) [µg/mL]
50	50	CC[C@H](C)[C@H](NC(=O)[C@H](C)NC(=O)[C@H](CCCCN)NC(=O)[C@H](CCC(N)=O)NC(=O)[C@@H](NC(=O)[C@H](Cc1c[nH]c2ccccc12)NC(=O)[C@H](CCCCN)NC(=O)[C@H](CCCCN)NC(=O)[C@H](CC(C)C)NC(=O)[C@H](CCCNC(=N)N)NC(=O)[C@H](Cc1ccccc1)NC(=O)[C@@H](N)C(C)C)[C@@H](C)CC)C(N)=O [compound 18] (H-VFRLKKWIQKAI-NH2)	12.5	3.125	0.1250	0.0781	3.125	2.3% and 2%	–
200	25	CC[C@H](C)[C@H](NC(=O)[C@@H](NC(=O)[C@H](CCCCN)NC(=O)[C@H](CCC(N)=O)NC(=O)[C@@H](NC(=O)[C@H](Cc1c[nH]c2ccccc12)NC(=O)[C@H](CCCCN)NC(=O)[C@H](CCCCN)NC(=O)[C@H](C)NC(=O)[C@H](CCCNC(=N)N)NC(=O)[C@H](Cc1ccccc1)NC(=O)[C@@H](N)C(C)C)[C@@H](C)CC)C(C)C)C(N)=O [compound 11] (H-VFRAKKWIQKVI-NH2)	12.5	25	–	–	1.563	1.1% and 1%	0.25
100	100	CC[C@H](C)[C@H](NC(=O)[C@@H](NC(=O)[C@H](CCCCN)NC(=O)[C@H](CCC(N)=O)NC(=O)[C@H](C)NC(=O)[C@H](Cc1c[nH]c2ccccc12)NC(=O)[C@H](CCCCN)NC(=O)[C@H](CCCCN)NC(=O)[C@H](CC(C)C)NC(=O)[C@H](CCCNC(=N)N)NC(=O)[C@H](Cc1ccccc1)NC(=O)[C@@H](N)C(C)C)C(C)C)C(N)=O [compound 15] (H-VFRLKKWAQKVI-NH2)	12.5	12.5	–	0.0938	6.25	0.9% and 1%	0.25
6.25	12.5	CC[C@@H](C)[C@@H](NC(=O)[C@H](NC(=O)[C@@H](CCCCN)NC(=O)[C@@H](CCC(N)=O)NC(=O)[C@H](NC(=O)[C@@H](Cc1c[nH]c2ccccc12)NC(=O)[C@@H](CCCCN)NC(=O)[C@@H](CCCCN)NC(=O)[C@@H](CC(C)C)NC(=O)[C@@H](CCCNC(=N)N)NC(=O)[C@@H](Cc1ccccc1)NC(=O)[C@H](N)C(C)C)[C@H](C)CC)C(C)C)C(N)=O [peptide 20] (H-[dV][dF][dR][dL][dK][dK][dW][dI][dQ][dK][dV][dI]-NH2)	3.125	3.13	–	0.2813	3.125	3.2% and 3%	0.25
